*1 amine or outer side, *2 acyl side, *3 side chain or, on linkers, in order; H or OH if unused. Where a SMILES comes first, the peptide text is derived from it. Bridges are numbered along the chain shown (N, C = ends). [ ]: non-standard residue; d: D form. The star is where a group is joined. ξ: configuration not given here. hPhe(3-OMe,4-CONHMe) = CNC(=O)c1ccc(CC[C@H](N)C(=O)O)cc1OC; X5 = O=C([C@H](CCC[C@@H]1CC(F)(F)CN1)N[*:1])[*:2]; CH2(1,2,4-oxadiazolon-3-yl) = O=c1[nH]c(C*)no1; Phe(4-COOH) = N[C@@H](Cc1ccc(C(=O)O)cc1)C(=O)O; NMePhe(3-Cl) = CN[C@@H](Cc1cccc(Cl)c1)C(=O)O; X4 = O=C(C(CCc1noc(=O)[nH]1)N[*:1])[*:2]; Pro(4,4-F2)ψ(CH2) = FC1(F)CN[C@H](C*)C1; Propyl(2,2-Me2,3-OH) = CC(C)(CO)C*; NMeF = CN[C@@H](Cc1ccccc1)C(=O)O; NMeGABA = CN(CCCC(=O)[*:2])[*:1]; NMeI = CC[C@H](C)[C@H](NC)C(=O)O; CH2CH(OH)CF3 = OC(C*)C(F)(F)F; NMeL = CN[C@@H](CC(C)C)C(=O)O; dNMeL = CN[C@H](CC(C)C)C(=O)O; Butyl(3R-OH) = C[C@@H](O)CC*; Butyl(3S-OH) = C[C@H](O)CC*; NMeV = CN[C@H](C(=O)O)C(C)C; NMeAbu = CC[C@H](NC)C(=O)O; NMeA = CN[C@@H](C)C(=O)O; Piperidide = C1CCN(*)CC1; NBuGly = CCCCNCC(=O)O; Propyl(3-OH) = OCCC*; ξNMeA = CNC(C)C(=O)O; ξV = CC(C)C(N)C(=O)O; ξS = NC(CO)C(=O)O; N(OH)Me = CN(O)*; Sar = CNCC(=O)O; tBu = CC(C)(C)*
Assay: Membrane permeability test of cyclic peptides (Caco-2, modified/improved method of WO 2018/124162)
Conditions: human
[1] = Caco-2, Caco-2 (cm/sec), membrane permeability of cyclic peptides, Caco-2
[2] = Caco-2, Caco-2 (membrane permeability), Table 10, cyclic peptides containing Ser(S-4-F2-Pyrro-Me) (G) or Nva(2-R-4-F2-Pyrro) (H)

SMILES: CCCCN1CC(=O)N(C)[C@@H](CC(C)C)C(=O)N[C@H](C(=O)N2CCCCC2)CC(=O)N(C)[C@@H](C(C)C)C(=O)N[C@@H](CC(C)C)C(=O)N(C)[C@@H](CC(C)C)C(=O)N(C)[C@@H](Cc2ccccc2)C(=O)N[C@@H](COCC[C@@H](C)O)C(=O)N(C)[C@@H](Cc2ccccc2)C(=O)N(C)[C@@H](C(C)C)C(=O)N[C@@H]([C@@H](C)O)C1=O [AP116] ([NMeV]L[NMeL][NMeF]S(Butyl(3R-OH))[NMeF][NMeV]T[NBuGly][NMeL]D-Piperidide; lactam N-11)
- Papp [1]: 0.89 ×10⁻⁶ cm/s

SMILES: CC(C)C[C@@H]1NC(=O)[C@H](C(C)C)N(C)C(=O)C[C@@H](C(=O)N2CCCCC2)NC(=O)[C@H](CC(C)C)N(C)C(=O)CN(C)C(=O)[C@H]([C@@H](C)O)NC(=O)[C@H](C(C)C)N(C)C(=O)[C@H](Cc2ccccc2)N(C)C(=O)C(COCC[C@H](C)O)NC(=O)[C@H](Cc2ccccc2)N(C)C(=O)[C@H](CC(C)C)N(C)C1=O (stereo partly drawn) [AP104] ([NMeV]L[NMeL][NMeF][ξS](Butyl(3S-OH))[NMeF][NMeV]T[Sar][NMeL]D-Piperidide; lactam N-11)
- Papp [1]: 2.9 ×10⁻⁶ cm/s

SMILES: CCCCN1CC(=O)N(C)[C@@H](CC(C)C)C(=O)N[C@H](C(=O)N2CCCCC2)CC(=O)N(C)C(C)C(=O)N[C@@H](COC[C@@H]2CC(F)(F)CN2)C(=O)N(C)[C@@H](CC(C)C)C(=O)N(C)[C@@H](CC)C(=O)N[C@@H](C(C)C)C(=O)N(C)[C@@H](Cc2ccccc2)C(=O)N(C)[C@@H](CC(C)C)C(=O)N[C@@H]([C@@H](C)O)C1=O (stereo partly drawn) [Compound G05] ([ξNMeA]S(Pro(4,4-F2)ψ(CH2))[NMeL][NMeAbu]V[NMeF][NMeL]T[NBuGly][NMeL]D-Piperidide; lactam N-11)
- Papp [2]: 3.2 ×10⁻⁶ cm/s

SMILES: CC(C)C[C@H]1C(=O)N[C@@H](COC(C)(C)C)C(=O)N(C)[C@@H](Cc2ccccc2)C(=O)N(C)[C@@H](CC(C)C)C(=O)N[C@H](C(=O)N2CCCCC2)CC(=O)N[C@H](C(C)C)C(=O)N(C)[C@@H](Cc2ccccc2)C(=O)N[C@@H](COCC(O)C(F)(F)F)C(=O)N(C)[C@@H](CC(C)C)C(=O)NC(C(C)C)C(=O)N(C)CC(=O)N1C (stereo partly drawn) [Compound C11] ([dV][NMeF]S(CH2CH(OH)CF3)[NMeL][ξV][Sar][NMeL]S(tBu)[NMeF][NMeL]D-Piperidide; lactam N-11)
- Papp (Caco-2, Caco-2 (membrane permeability), Table 6, cyclic peptides containing Ser(1-CF3-EtOH) (C) or Hnl(7-F3-6-OH) (D)): 0.23 ×10⁻⁶ cm/s

SMILES: CCCCN1CC(=O)N(C)[C@@H](CC(C)C)C(=O)N[C@H](C(=O)N2CCCCC2)CC(=O)N(C)[C@@H](C)C(=O)N[C@@H](CCC[C@@H]2CC(F)(F)CN2)C(=O)N(C)[C@@H](CC(C)C)C(=O)N(C)[C@@H](C)C(=O)N[C@@H](C(C)C)C(=O)N(C)[C@@H](Cc2ccccc2)C(=O)N(C)[C@@H](CC(C)C)C(=O)N[C@@H]([C@@H](C)O)C1=O [Compound H05] ([NMeA][X5][NMeL][NMeA]V[NMeF][NMeL]T[NBuGly][NMeL]D-Piperidide; lactam N-11)
- Papp [2]: 1.2 ×10⁻⁶ cm/s

SMILES: CC[C@H](C)[C@H]1C(=O)N[C@@H]([C@@H](C)O)C(=O)N(C)CC(=O)N(C)[C@@H](CC)C(=O)N[C@H](C(=O)N2CCCCC2)CC(=O)N(C)[C@@H](CC(C)C)C(=O)N[C@@H](Cc2ccc(C(=O)N(C)O)cc2)C(=O)N(C)[C@@H](CC(C)C)C(=O)N(C)[C@@H](Cc2ccccc2)C(=O)N[C@@H](CC(C)C)C(=O)N(C)[C@@H](CC(C)C)C(=O)N1C [AP252] ([NMeL][Phe(4-COOH)](N(OH)Me)[NMeL][NMeF]L[NMeL][NMeI]T[Sar][NMeAbu]D-Piperidide; lactam N-11)
- Papp [1]: 0.13 ×10⁻⁶ cm/s

SMILES: CCCCN1CC(=O)N(C)[C@@H](CC(C)C)C(=O)N[C@H](C(=O)N2CCCCC2)CC(=O)N(C)[C@@H](CC)C(=O)N[C@@H](CC(C)C)C(=O)N(C)[C@@H](CC(C)C)C(=O)N(C)[C@@H](Cc2ccccc2)C(=O)NC(COCc2noc(=O)[nH]2)C(=O)N(C)[C@@H](CC(C)C)C(=O)N(C)[C@@H](CC(C)C)C(=O)N[C@@H]([C@@H](C)O)C1=O (stereo partly drawn) [AP47] ([NMeAbu]L[NMeL][NMeF][ξS](CH2(1,2,4-oxadiazolon-3-yl))[NMeL][NMeL]T[NBuGly][NMeL]D-Piperidide; lactam N-11)
- Papp [1]: 5.3 ×10⁻⁶ cm/s

SMILES: CC(C)C[C@@H]1NC(=O)[C@H](Cc2ccccc2)N(C)C(=O)[C@H](CC(C)C)N(C)C(=O)[C@H](COCCCO)NC(=O)[C@H](CC(C)C)N(C)C(=O)C[C@@H](C(=O)N2CCCCC2)NC(=O)[C@H](CC(C)C)N(C)C(=O)CN(C)C(=O)[C@H]([C@@H](C)O)NC(=O)[C@H](CC(C)C)N(C)C(=O)[C@H](Cc2cccc(Cl)c2)N(C)C1=O [AP97] ([NMeL]S(Propyl(3-OH))[NMeL][NMeF]L[NMePhe(3-Cl)][NMeL]T[Sar][NMeL]D-Piperidide; lactam N-11)
- Papp [1]: 0.21 ×10⁻⁶ cm/s

SMILES: CCCCN1CC(=O)N(C)[C@@H](CC(C)C)C(=O)N[C@H](C(=O)N2CCCCC2)CC(=O)N(C)[C@@H](CC)C(=O)N[C@@H](CC(C)C)C(=O)N(C)[C@@H](CC(C)C)C(=O)N(C)[C@@H](Cc2ccccc2)C(=O)N[C@@H](CCC[C@@H]2CC(F)(F)CN2)C(=O)N(C)[C@@H](C)C(=O)N(C)[C@@H](CC(C)C)C(=O)N[C@@H]([C@@H](C)O)C1=O [Compound H04] ([NMeAbu]L[NMeL][NMeF][X5][NMeA][NMeL]T[NBuGly][NMeL]D-Piperidide; lactam N-11)
- Papp [2]: 0.93 ×10⁻⁶ cm/s

SMILES: CC[C@H](C)[C@H]1C(=O)N[C@@H](CCc2ccc(C(=O)NC)c(OC)c2)C(=O)N[C@H](C(=O)N2CCCCC2)CC(=O)N(C)[C@H](CC(C)C)C(=O)N[C@@H](COC(C)(C)C)C(=O)N(C)[C@@H](CC(C)C)C(=O)N[C@@H]([C@@H](C)O)C(=O)N(C)[C@@H](Cc2ccccc2)C(=O)N(C)[C@@H](CC(C)C)C(=O)NCC(=O)N1C [AP264] ([dNMeL]S(tBu)[NMeL]T[NMeF][NMeL]G[NMeI][hPhe(3-OMe,4-CONHMe)]D-Piperidide; lactam N-10)
- Papp (Caco-2, Caco-2 (cm/sec), membrane permeability, Caco-2): 0.17 ×10⁻⁶ cm/s

SMILES: CCCCN1CC(=O)N(C)[C@@H](CC(C)C)C(=O)N[C@H](C(=O)N2CCCCC2)CC(=O)N(C)[C@@H](CC(C)C)C(=O)NC(COCc2noc(=O)[nH]2)C(=O)N(C)[C@@H](CC(C)C)C(=O)N(C)[C@@H](CC(C)C)C(=O)N[C@@H](C(C)C)C(=O)N(C)[C@@H](Cc2ccccc2)C(=O)N(C)[C@@H](CC(C)C)C(=O)N[C@@H]([C@@H](C)O)C1=O (stereo partly drawn) [AP48] ([NMeL][ξS](CH2(1,2,4-oxadiazolon-3-yl))[NMeL][NMeL]V[NMeF][NMeL]T[NBuGly][NMeL]D-Piperidide; lactam N-11)
- Papp [1]: 0.4 ×10⁻⁶ cm/s

SMILES: CCCCN1CC(=O)N(C)[C@@H](CC(C)C)C(=O)N[C@H](C(=O)N2CCCCC2)CC(=O)N(C)[C@@H](CC)C(=O)N[C@@H](CC(C)C)C(=O)N(C)[C@@H](CC(C)C)C(=O)N(C)[C@@H](Cc2ccccc2)C(=O)NC(CCc2noc(=O)[nH]2)C(=O)N(C)[C@@H](CC(C)C)C(=O)N(C)[C@@H](CC(C)C)C(=O)N[C@@H]([C@@H](C)O)C1=O (stereo partly drawn) [pd487] ([NMeAbu]L[NMeL][NMeF][X4][NMeL][NMeL]T[NBuGly][NMeL]D-Piperidide; lactam N-11)
- Papp (Caco-2, Caco-2, Papp, membrane permeability, cyclic peptides comprising MeAbu(pip-4-F2), MeAbu(Mor), Ser(Et-2-Mor), MeAbu(pip-3-F2) or Abu(5-Oxo-Odz) (Table 29)): 2.2 ×10⁻⁶ cm/s

SMILES: CC(C)C[C@@H]1NC(=O)[C@H](Cc2ccccc2)N(C)C(=O)[C@H](Cc2ccccc2)N(C)C(=O)[C@H](COCC(C)(C)CO)NC(=O)[C@H](CC(C)C)N(C)C(=O)CCCN(C)C(=O)C[C@@H](C(=O)N2CCCCC2)NC(=O)[C@H](CC(C)C)N(C)C(=O)[C@H](CC(C)C)N(C)C(=O)[C@H]([C@@H](C)O)NC(=O)[C@H](CC(C)C)N(C)C1=O [AP119] ([NMeGABA][NMeL]S(Propyl(2,2-Me2,3-OH))[NMeF][NMeF]L[NMeL]T[NMeL][NMeL]D-Piperidide; lactam N-11)
- Papp [1]: 0.34 ×10⁻⁶ cm/s
